Laboratory results as given in US20180099031A1, “DIABETES TREATMENT” (BETH ISRAEL DEACONESS MEDICAL CENTER, priority 2013, published 2018).

Test system: New onset diabetic NOD mice
Assay: α1 anti-trypsin treatment of new onset diabetic NOD mice, blood glucose levels
Type: in vivo
Text: Female NOD (NOD/LtJx) mice and NOD.SCID (NOD.CB17-Prkdcscid/J) mice were purchased from Jackson Laboratories (Bar Harbor, Me.) at 4 wks of age and maintained under pathogen-free conditions at the Harvard Institutes of Medicine (Boston, Mass.). The Harvard Medical School institutional review board approved all animal studies.
Blood glucose levels of NOD mice were monitored twice weekly with the Accu-Check blood glucose monitor system (Roche, Indianapolis, Ind.). When non-fasting blood glucose levels were in excess of 200 mg/dl on three consecutive measurements a diagnosis of new onset of diabetes was made. Mice with blood glucose levels between 250 to 350 mg/dl were used for the experiment described below. […] The 25% residual beta cell mass is similar to that found in newly diagnosed patients with T1DM.
New onset diabetic NOD mice were divided into two groups and treated with α1 anti-trypsin while simultaneously receiving intense insulin treatment (Group 1) or implantable insulin pellets (Group 2).
For the animals in Group 1, insulin doses were calibrated on the basis of three blood glucose measurements per day. The goal was to maintain blood glucose levels between 100-160 mg/dl. For blood glucose levels in excess of 160 mg/dl, NPH insulin was administered i.p. in doses ranging from 1 to 4 International Units depending upon the magnitude of hyperglycemia. For blood glucose level between 160 and 200 mg/dl, 1 IU was given. For blood glucose levels between 200 and 250 mg/dl, 2 IU of NPH insulin were given. For blood glucose levels between 250 and 300 mg/dl, 2 IU of NPH insulin were given. For blood glucose levels between 300 and 350 mg/dl, 3 IU of NPH insulin were given. For blood glucose levels in excess of 350 mg/dl, 4 IU of NPH insulin were given. Mice with high blood glucose levels in excess of 400 mg/dl for 2 days also received 0.2-0.4 ml warm normal saline subcutaneously in order to treat glycosuria-associated dehydration.
The animals in Group 2, LinBit™ sustained release insulin implants were used for management of hyperglycemia. LinBit™ sustained release insulin implants were purchased from LinShin Canada Inc. The LinBit™ implants (3-mm in length and 2 mm in diameter) were made from an admixture of insulin and micro-recrystallized palmitic acid and were erodible in vivo after being placed subcutaneously. The insulin release rate was about 0.1 U/day/implant for the time period over 2-4 weeks.
In our experiments, one or 2 LinBit™ implants were placed subcutaneously under the mid dorsal skin in newly onset diabetic mice with 3 previous measurements of blood glucose levels >200 mg/dL. The mice were anesthesized with ketamine/xylazine and the hair on the dorsal skin from a spot about 1 cm^2 was clipped using a small scissors with curved tips. […]

α1 anti-trypsin: Aralast NP, a human α1-proteinase inhibitor derived from pooled human plasma, purchased from Baxter
blood glucose levels (Group 1: with intense insulin therapy (NPH insulin i.p., three glucose measurements per day), Aralast NP 2 mg i.p. every 3 days, five injections, experiment 60-100 days, FIG. 1): fell to normoglycemic levels shortly after treatment began and remained at normal levels for the entire duration of the experiment | blood glucose levels shortly after treatment began (Group 2: with LinBit insulin implants s.c., Aralast NP 2 mg i.p. every 3 days, five injections, FIG. 2): fell to normoglycemic levels shortly after treatment began | effect on diabetic state (glucose levels maintained within normal limits (50-120 mg/dL) by intensive insulin therapy): curative effect | effect on diabetic state (hyperglycemic state managed by subcutaneously placed insulin pellets): less effective
